Experimental data published in publication PMC6112376, “Comprehensive Analyses and Prioritization of Tox21 10K Chemicals Affecting Mitochondrial Function by in-Depth Mechanistic Studies” (Environmental Health Perspectives, 2018).
Like-named read-outs stand apart in the source and are kept apart here.

Columns and labels:
rat primary hepatocytes [1] = tested on: rat primary hepatocytes
HepG2 cells [2] = conditions: cited from earlier work
HepG2 cells [3] = assay: cells; conditions: Homo sapiens; for IC50: HepG2, read-out: MMP assays IC50 (µM) HepG2; for Emax: HepG2, read-out: MMP assays efficacy (%) HepG2
rat primary hepatocytes [4] = assay: MMP assay in rat primary hepatocytes; conditions: for IC50: Rattus norvegicus, Hepatocyte, read-out: MMP assays IC50 (µM) Rat Hepatocytes
[5] = read-out: MMP assays IC50 (µM), qHTS-HepG2
[6] = read-out: MMP assays IC50 (µM) qHTS-HepG2

Row | Compound | MMP assays efficacy (%) Rat Hepatocytes (rat primary hepatocytes [1]) | MMP assays efficacy (%) qHTS-HepG2 (HepG2 cells [2]) | IC50 (HepG2 cells [2]; [5]) | IC50 (HepG2 cells [3]) | Emax (HepG2 cells [3]) | IC50 (rat primary hepatocytes [4]) | MMP assays IC50 (µM) Rat Hepatocytes (rat primary hepatocytes [4]) | IC50 (HepG2 cells [2]; [6])
1 | O=C(Nc1ccccc1)Nc1ccnc(Cl)c1 [Forchlorfenuron] | -108±37% | -112±3% | 0.45 ± 0.13 µM | 1 µM | 104% | 2.19 ± 1.97 µM | – | –
2 | CC(C)[C@@H](Nc1ccc(C(F)(F)F)cc1Cl)C(=O)OC(C#N)c1cccc(Oc2ccccc2)c1 (some centres unmarked) [tau-Fluvalinate] | inactive | – | 37.2 ± 15.1 µM | 31.6 µM | 58% | – | inactive | –
3 | CCC(C)c1cc([N+](=O)[O-])cc([N+](=O)[O-])c1OC(=O)OC(C)C (centres unmarked) [Dinobuton] | -115±54% | -105±4% | – | 7.94 µM | 101% | 5.74 ± 4.21 µM | – | 4.33 ± 1.24 µM
4 | O=[N+]([O-])c1cc(C2CCCCC2)c(O)c([N+](=O)[O-])c1 [Dinex] | -96±4% | -88±10% | – | 0.71 µM | 86% | 1.4 ± 0.6 µM | – | 0.28 ± 0.34 µM
5 | OC1(c2ccc(Cl)c(C(F)(F)F)c2)CCN(CCCC(c2ccc(F)cc2)c2ccc(F)cc2)CC1 [Penfluridol] | -64±25% | -88±15% | 33.5 µM | 27.5 µM | 68% | 23.2 ± 6.57 µM | – | –
6 | COc1ccc2cc3[n+](cc2c1OC)CCc1cc2c(cc1-3)OCO2 [Berberine chloride] | -101±32% | -95±8% | – | 3.46 µM | 92% | 6.03 ± 3.78 µM | – | 2.03 ± 1.29 µM
7 | C=C(C)CN(CC)c1c([N+](=O)[O-])cc(C(F)(F)F)cc1[N+](=O)[O-] [Ethalfluralin] | inactive | -57±4% | – | 44.7 µM | 68% | – | inactive | 43.3 ± 17.6 µM
8 | Oc1ccc(Cl)cc1Sc1cc(Cl)ccc1O [Fenticlor] | -88±15% | -107±14% | 2.15 ± 0.36 µM | 5.48 µM | 101% | 13.9 ± 8.84 µM | – | –
9 | C(=NC1CCCCC1)=NC1CCCCC1 [Dicyclohexylcarbodiimide] | inactive | -69±18% | – | 0.0178 µM | 39% | – | inactive | 0.3 ± 0.2 µM
10 | CC1(C(=O)Nc2ccc(O)c(Cl)c2Cl)CCCCC1 [Fenhexamid] | -62±26% | -88±22% | – | 17.8 µM | 98% | 36.7 ± 21.2 µM | – | 8.31 ± 1.15 µM
11 | Oc1ccc(Oc2ccccc2)cc1 [Compound 4-Phenoxyphenol] | inactive | -106±22% | – | 47.6 µM | 104% | – | inactive | 28 ± 10.6 µM
12 | O=c1oc2ccccc2c(O)c1C1CCCc2ccccc21 (centres unmarked) [Coumatetralyl] | -110±37% | -144±2% | – | 35.5 µM | 124% | 13.8 ± 8.1 µM | – | 13.7 ± 4.84 µM
13 | NC(=O)Oc1ccc(Cc2ccccc2)cc1 [Diphenan] | -51±6% | -115±14% | – | 19.9 µM | 112% | 84.2 ± 39.6 µM | – | 22.3 ± 4.67 µM
14 | NS(=O)(=O)C(F)(F)C(F)(F)C(F)(F)C(F)(F)C(F)(F)C(F)(F)C(F)(F)C(F)(F)F [Perfluorooctanesulfonamide] | -118±45% | -94±15% | 2.43 ± 0.81 µM | 2.51 µM | 101% | 1.47 ± 0.1 µM | – | –
15 | O=C(CCc1ccc(O)cc1)c1c(O)cc(O)cc1O [Phloretin] | -74±26% | -107±12% | 4.26 ± 1.22 µM | 11.2 µM | 100% | 10.6 ± 4.98 µM | – | –
16 | Cc1cccc(N)c1N [3-Methylbenzene-1,2-diamine] | -56±11% | -67±14% | – | 28.2 µM | 90% | 36.6 ± 11.8 µM | – | 21.7 ± 3.65 µM
17 | CO[C@H]1C[C@@H]2CC[C@@H](C)[C@@](O)(O2)C(=O)C(=O)N2CCCC[C@H]2C(=O)O[C@H]([C@H](C)C[C@@H]2CC[C@@H](OCCO)[C@H](OC)C2)CC(=O)[C@H](C)/C=C(\C)[C@@H](O)[C@@H](OC)C(=O)[C@H](C)C[C@H](C)/C=C/C=C/C=C/1C [Everolimus] | -38±9% | -96±20% | – | 27.5 µM | 92% | 13 ± 7.49 µM | – | 19.9 ± 2.83 µM
